27 compounds from patent publication US11149054B2, “Oxysterols and methods of use thereof” (Sage Therapeutics, Inc., priority 2016, dated 2021) can be followed below.

Where two headings read alike, the source gives them in different places. Bounds are passed on as bounds.

In experiment [1] the target is GlunN1/GluN2A glutamate receptors (Homo sapiens (Human), UniProt Q05586+Q12879). The experiment is described as follows: Whole-cell patch clamp of mammalian cells (Ionworks Barracuda), positive allosteric modulation, GluN1/GluN2A. In kind it is cell-based. The method, then:
(§1) The measurements were performed using Ion Works Barracuda platform following this procedure:
(§2) Electrophysiological Procedures:
(§3) • a) Intracellular solution (mM): 50 mM CsCl, 90 mM CsF, 2 mM MgCl2, 5 mM EGTA, 10 mM HEPES. Adjust to pH 7.2 with CsOH. • b) Extracellular solution, HB-PS (composition in mM): NaCl, 137; KCl, 1.0; CaCl2), 5; HEPES, 10; Glucose, 10; pH adjusted to 7.4 with NaOH (refrigerated until use). • c) Holding potential: −70 mV, potential during agonist/PAM application: −40 mV. Recording Procedure: • a) Extracellular buffer will be loaded into the PPC plate wells (11 μL per well). Cell suspension will be pipetted into the wells (9 μL per well) of the PPC planar electrode. • b) Whole-cell recording configuration will be established via patch perforation with membrane currents recorded by on-board patch clamp amplifiers. • c) Two recordings (scans) will be performed. First, during pre-application of test article alone (duration of pre-application—[…]) and second, during test articles and agonist (EC20 L-glutamate and 30 μM glycine) co-application to detect positive modulatory effects of the test article. […] Potentiating Effect of Positive Allosteric Modulators (PAM) on the Channel
(§4) PAM concentration-response data will be fitted to an equation of the form: % Activation=% L-glutamate EC20+{(% MAX−% L-glutamate EC20)/[1+([Test]/EC50)^N]}, where [Test] will be the concentration of PAM (test article), EC50 will be the concentration of PAM producing half-maximal activation, N will be the Hill coefficient, % L-glutamate EC20 will be the percentage of the current Elicited with L-glutamate EC20, % MAX is the percentage of the current activated with the highest dose of PAM co-admitted with L-glutamate EC20 and % Activation will be the percentage of the current elicited with L-glutamate EC10-30 at each PAM concentration. The maximal amplitude of the evoked currents are measured and defined as Peak Current Amplitude (PCA).
In general terms: Patch clamp records ionic current or voltage across a cell membrane.

The target in experiment [2] is GluN2B glutamate receptors (Homo sapiens (Human), UniProt Q05586+Q13224). The experiment is described as follows: Whole-cell patch clamp of mammalian cells (Ionworks Barracuda), positive allosteric modulation, GluN2B. Type of experiment: cell-based. To be noted: for Emax: read-out: Avg Emax 2B (%). The method, then: as §1, §2, §3, §4
[3] abbreviates: HEK293 cells, % potentiation of current elicited with EC20 L-glutamate and 30 μM glycine, read-out: Avg Emax 2A (%).
The mark [4] stands for this setting: % potentiation of current elicited with EC20 L-glutamate and 30 μM glycine.
[5] abbreviates: HEK293 cells, co-application with EC20 L-glutamate and 30 μM glycine, 8-point concentration-response, read-out: Avg EC50 2A.
[6] abbreviates: co-application with EC20 L-glutamate and 30 μM glycine, 8-point concentration-response, read-out: Avg EC50 2B.

GlunN1/GluN2A glutamate receptors, sequence (Q12879 23-1464, other chains not shown): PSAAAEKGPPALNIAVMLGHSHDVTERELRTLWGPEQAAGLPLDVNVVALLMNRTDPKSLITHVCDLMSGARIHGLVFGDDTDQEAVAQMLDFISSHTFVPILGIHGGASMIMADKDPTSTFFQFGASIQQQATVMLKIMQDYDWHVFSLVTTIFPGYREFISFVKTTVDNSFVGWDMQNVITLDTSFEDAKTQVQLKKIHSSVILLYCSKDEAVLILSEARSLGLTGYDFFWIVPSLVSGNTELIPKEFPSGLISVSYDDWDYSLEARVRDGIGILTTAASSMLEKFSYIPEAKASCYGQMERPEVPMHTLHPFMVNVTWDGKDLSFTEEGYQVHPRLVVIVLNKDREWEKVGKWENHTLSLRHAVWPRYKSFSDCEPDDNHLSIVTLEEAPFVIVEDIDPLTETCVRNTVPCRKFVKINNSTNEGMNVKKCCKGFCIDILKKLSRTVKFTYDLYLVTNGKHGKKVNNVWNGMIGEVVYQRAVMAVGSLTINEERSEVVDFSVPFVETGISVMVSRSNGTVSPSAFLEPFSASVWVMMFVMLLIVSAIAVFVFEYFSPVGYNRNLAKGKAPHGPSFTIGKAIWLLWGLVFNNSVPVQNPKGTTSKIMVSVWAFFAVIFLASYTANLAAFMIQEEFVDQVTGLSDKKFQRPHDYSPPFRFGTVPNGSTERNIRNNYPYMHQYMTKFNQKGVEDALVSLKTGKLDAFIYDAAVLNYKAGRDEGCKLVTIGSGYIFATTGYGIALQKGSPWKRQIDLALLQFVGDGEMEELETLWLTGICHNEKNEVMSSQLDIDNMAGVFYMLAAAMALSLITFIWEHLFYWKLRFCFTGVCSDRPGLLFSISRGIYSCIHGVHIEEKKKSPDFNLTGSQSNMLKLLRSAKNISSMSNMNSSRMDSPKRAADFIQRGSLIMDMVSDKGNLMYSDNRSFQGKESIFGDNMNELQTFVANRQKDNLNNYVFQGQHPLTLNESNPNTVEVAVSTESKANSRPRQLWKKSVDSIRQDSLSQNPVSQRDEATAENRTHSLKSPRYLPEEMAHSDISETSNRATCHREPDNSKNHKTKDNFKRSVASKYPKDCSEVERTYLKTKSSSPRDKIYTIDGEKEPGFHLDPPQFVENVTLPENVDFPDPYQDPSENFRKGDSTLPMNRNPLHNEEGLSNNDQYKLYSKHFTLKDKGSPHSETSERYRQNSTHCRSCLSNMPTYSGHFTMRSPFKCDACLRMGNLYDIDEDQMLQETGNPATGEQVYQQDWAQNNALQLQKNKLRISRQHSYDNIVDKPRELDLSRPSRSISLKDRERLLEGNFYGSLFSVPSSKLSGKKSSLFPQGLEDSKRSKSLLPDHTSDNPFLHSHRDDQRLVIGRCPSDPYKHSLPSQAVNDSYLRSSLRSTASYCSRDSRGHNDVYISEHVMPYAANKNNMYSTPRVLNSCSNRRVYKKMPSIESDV
GluN2B glutamate receptors, sequence (Q13224 27-1484, other chains not shown): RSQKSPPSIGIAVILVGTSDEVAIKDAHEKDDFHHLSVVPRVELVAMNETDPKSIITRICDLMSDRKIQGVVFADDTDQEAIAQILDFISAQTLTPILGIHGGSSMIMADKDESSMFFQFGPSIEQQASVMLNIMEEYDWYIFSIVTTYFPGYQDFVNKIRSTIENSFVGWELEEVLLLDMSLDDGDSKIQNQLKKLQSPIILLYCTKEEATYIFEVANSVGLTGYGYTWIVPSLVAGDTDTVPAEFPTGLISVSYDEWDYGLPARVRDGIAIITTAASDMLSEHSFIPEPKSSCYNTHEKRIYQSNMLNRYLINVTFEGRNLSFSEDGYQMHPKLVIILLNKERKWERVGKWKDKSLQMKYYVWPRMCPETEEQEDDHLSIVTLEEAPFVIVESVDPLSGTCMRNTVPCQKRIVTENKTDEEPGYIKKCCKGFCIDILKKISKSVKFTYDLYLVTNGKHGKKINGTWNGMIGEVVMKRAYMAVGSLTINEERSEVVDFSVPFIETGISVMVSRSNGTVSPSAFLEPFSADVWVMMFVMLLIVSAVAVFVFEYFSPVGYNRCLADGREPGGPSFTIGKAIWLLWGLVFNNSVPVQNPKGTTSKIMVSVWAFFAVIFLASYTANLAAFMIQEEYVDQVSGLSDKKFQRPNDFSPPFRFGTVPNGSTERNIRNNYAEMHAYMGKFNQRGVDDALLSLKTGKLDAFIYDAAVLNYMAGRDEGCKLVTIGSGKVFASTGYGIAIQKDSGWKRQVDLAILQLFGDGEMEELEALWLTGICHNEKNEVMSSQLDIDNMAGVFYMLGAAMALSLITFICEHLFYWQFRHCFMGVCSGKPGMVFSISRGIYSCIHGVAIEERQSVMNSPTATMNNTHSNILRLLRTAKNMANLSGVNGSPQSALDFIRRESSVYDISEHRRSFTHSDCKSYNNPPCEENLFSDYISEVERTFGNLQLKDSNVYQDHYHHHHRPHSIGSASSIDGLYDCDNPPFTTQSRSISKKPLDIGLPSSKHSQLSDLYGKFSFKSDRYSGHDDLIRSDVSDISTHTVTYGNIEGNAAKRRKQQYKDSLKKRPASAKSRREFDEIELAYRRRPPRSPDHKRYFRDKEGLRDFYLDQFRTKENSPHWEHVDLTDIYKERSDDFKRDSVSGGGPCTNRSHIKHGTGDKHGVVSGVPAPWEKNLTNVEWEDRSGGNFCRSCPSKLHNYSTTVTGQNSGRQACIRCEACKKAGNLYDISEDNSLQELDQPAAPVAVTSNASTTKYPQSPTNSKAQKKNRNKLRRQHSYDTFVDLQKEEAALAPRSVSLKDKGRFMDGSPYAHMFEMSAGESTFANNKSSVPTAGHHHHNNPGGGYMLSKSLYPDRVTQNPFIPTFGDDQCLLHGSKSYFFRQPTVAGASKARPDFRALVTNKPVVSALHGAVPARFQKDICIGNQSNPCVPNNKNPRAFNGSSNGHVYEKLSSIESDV

With `C[C@H](CCC[C@@H](C)O)[C@H]1CC[C@H]2[C@@H]3CC[C@H]4C[C@](O)(C(F)(F)F)CC[C@]4(C)[C@H]3CC[C@]12C` [Compound 112], the Emax (usually the greatest response seen or fitted, relative to the assay's reference) stood at 92.6% in experiment [1] (setting [3]) and 151% in experiment [2] (setting [4]).

Consider `CC(C)C(O)CC[C@@H](C)[C@H]1CC[C@H]2[C@@H]3CC[C@H]4C[C@@](C)(O)CC[C@@H]4[C@H]3CC[C@]12C` (stereo partly drawn) [Compound 175], for which the figures for the EC50 in experiment [1] and in experiment [2] were 574 nM and 288 nM, respectively. The Emax in experiment [1] (setting [3]) came out at 367%; in experiment [2] (setting [4]), 279%.

As to `CC[C@]1(O)CC[C@H]2C(=CC[C@@H]3[C@@H]2CC[C@]2(C)[C@@H]([C@H](C)CCCC(C)(C)O)CC[C@@H]32)C1` [Compound 194], the figures for the Emax in experiment [1] (setting [3]) and in experiment [2] (setting [4]) were 162% and 192%, respectively. The EC50 (in general, the concentration that produces a half-maximal response) in experiment [1] (setting [5]) stood at 200 nM.

As for `C[C@H](CCC(O)c1cccnc1)[C@H]1CC[C@H]2[C@@H]3CC=C4C[C@@](C)(O)CC[C@]4(C)[C@H]3CC[C@]12C` (stereo partly drawn) [Compound 255], the figures for the Emax in experiment [1] (setting [3]) and in experiment [2] (setting [4]) were 159% and 132%, respectively. Also, the EC50 in experiment [1] (setting [5]) came to 646 nM; in experiment [2] (setting [6]), 153 nM.

Consider `C[C@H](CCC(O)c1ccccc1)[C@H]1CC[C@H]2[C@@H]3CC=C4C[C@@](C)(O)CC[C@]4(C)[C@H]3CC[C@]12C` (stereo partly drawn) [Compound 356], for which the EC50 stood at 415 nM in experiment [1] and 923 nM in experiment [2]. Further, the values for the Emax in experiment [1] (setting [3]) and in experiment [2] (setting [4]) were 59.6% and 156%, respectively.

Regarding `CC[C@]1(O)CC[C@H]2[C@@H](CC[C@@H]3[C@@H]2CC[C@]2(C)[C@@H]([C@H](C)CCCO)CC[C@@H]32)C1` [Compound 376], the EC50 in experiment [1] and in experiment [2] was greater than 10000 nM in each case. The Emax in experiment [1] (setting [3]) stood at 49.9%; in experiment [2] (setting [4]), 59.8%.

Take `C[C@H](CCC(C)(O)c1ccccc1)[C@H]1CC[C@H]2[C@@H]3CC=C4C[C@@](C)(O)CC[C@]4(C)[C@H]3CC[C@]12C` (stereo partly drawn) [Compound 456]: the maximal response (Emax) in experiment [1] (HEK293, read-out: Avg Emax 2A (%)) stood at 53.4%; in experiment [2] it was 74.8%.

In the case of `CC[C@]1(O)CC[C@H]2[C@@H](CC[C@@H]3[C@@H]2CC[C@]2(C)[C@@H]([C@H](C)CCC(O)C(C)C)CC[C@@H]32)C1` (stereo partly drawn) [Compound 476], the EC50 in experiment [1] was found to be 406 nM; in experiment [2], 189 nM. Besides, the Emax came out at 811% in experiment [1] (setting [3]) and 399% in experiment [2] (setting [4]).

With `C[C@H](CCC(O)(c1ccccc1)C(F)(F)F)[C@H]1CC[C@H]2[C@@H]3CC=C4C[C@@](C)(O)CC[C@]4(C)[C@H]3CC[C@]12C` (stereo partly drawn) [Compound 559], the Emax was 204% in experiment [1] (setting [3]) and 373% in experiment [2] (setting [4]).

In the case of `C[C@H](CCC(O)Cc1ccccc1)[C@H]1CC[C@H]2[C@@H]3CC=C4C[C@@](C)(O)CC[C@]4(C)[C@H]3CC[C@]12C` (stereo partly drawn) [Compound 660], the Emax is 195% in experiment [1] (setting [3]) and 281% in experiment [2] (setting [4]).

As to `CC[C@]1(O)CC[C@H]2[C@@H](CC[C@@H]3[C@@H]2CC[C@]2(C)[C@@H]([C@H](C)CCC(C)(C)O)CC[C@@H]32)C1` [Compound 679], the Emax in experiment [1] (setting [3]) was 105%; in experiment [2] (setting [4]) it was 172%. The EC50 came to 5110 nM in experiment [1] (setting [5]) and 280 nM in experiment [2] (setting [6]).

With `CC[C@]1(O)CC[C@@]2(C)C(=CC[C@H]3[C@@H]4CC[C@H]([C@H](C)CCC(O)c5ccccc5)[C@@]4(C)CC[C@@H]32)C1` (stereo partly drawn) [Compound 761], the results for the EC50 in experiment [1] and in experiment [2] were 476 nM and 249 nM, respectively. For the same compound, the figures for the Emax in experiment [1] (setting [3]) and in experiment [2] (setting [4]) were 302% and 197%, respectively.

Take `CC[C@]1(O)CC[C@H]2C(=CC[C@@H]3[C@@H]2CC[C@]2(C)[C@@H]([C@H](C)CCC(C)(C)O)CC[C@@H]32)C1` [Compound 780]: the values for the Emax in experiment [1] (setting [3]) and in experiment [2] (setting [4]) were 132% and 170%, respectively. Besides, the values for the EC50 in experiment [1] (setting [5]) and in experiment [2] (setting [6]) were 341 nM and 263 nM, respectively.

Take `CC[C@]1(O)CC[C@@]2(C)C(=CC[C@H]3[C@@H]4CC[C@H]([C@H](C)CC[C@@H](O)c5ccccc5)[C@@]4(C)CC[C@@H]32)C1` [Compound 861]: the results for the EC50 in experiment [1] and in experiment [2] were 200 nM and 247 nM, respectively. Besides, the results for the Emax in experiment [1] (setting [3]) and in experiment [2] (setting [4]) were 183% and 390%, respectively.

As to `CC[C@]1(O)CC[C@@]2(C)C(=CC[C@H]3[C@@H]4CC[C@H]([C@H](C)CC[C@H](O)c5ccccc5)[C@@]4(C)CC[C@@H]32)C1` [Compound 961], the EC50 in experiment [1] amounted to 617 nM; in experiment [2], 180 nM. Also, the figures for the Emax in experiment [1] (setting [3]) and in experiment [2] (setting [4]) were 138% and 97.4%, respectively.

As for `C[C@H](CCC(C)(C)O)[C@H]1CC[C@H]2[C@@H]3CC=C4C[C@](O)(C(F)(F)F)CC[C@]4(C)[C@H]3CC[C@]12C` [Compound 1839], the Emax turned out to be 493% in experiment [1] (setting [3]) and 568% in experiment [2] (setting [4]). The EC50 in experiment [1] (setting [5]) was 295 nM.

With `C[C@H](CCC1(O)CCOC1)[C@H]1CC[C@H]2[C@@H]3CC[C@H]4C[C@](O)(C(F)(F)F)CC[C@]4(C)[C@H]3CC[C@]12C` (stereo partly drawn) [Compound 1967], the figures for the EC50 in experiment [1] and in experiment [2] were 171 nM and 113 nM, respectively. Also, the Emax amounted to 347% in experiment [1] (setting [3]) and 374% in experiment [2] (setting [4]).

Take `C[C@H](CC[C@H](O)C1CCOCC1)[C@H]1CC[C@H]2[C@@H]3CC[C@H]4C[C@](O)(C(F)(F)F)CC[C@]4(C)[C@H]3CC[C@]12C` [Compound 2080]: the EC50 in experiment [1] turned out to be 165 nM; in experiment [2], 187 nM. The Emax was determined as 77.2% in experiment [1] (setting [3]) and 147% in experiment [2] (setting [4]).

Turning to `C[C@H](CC[C@@H](O)C1CCOCC1)[C@H]1CC[C@H]2[C@@H]3CC[C@H]4C[C@](O)(C(F)(F)F)CC[C@]4(C)[C@H]3CC[C@]12C` [Compound 2081], the EC50 is 129 nM in experiment [1] and 175 nM in experiment [2]. For the same compound, the Emax in experiment [1] (setting [3]) was 126%; in experiment [2] (setting [4]), 215%.

As for `C[C@H](O)CCC[C@@H](C)[C@H]1CC[C@H]2[C@@H]3CC[C@H]4C[C@](O)(C(F)(F)F)CC[C@]4(C)[C@H]3CC[C@]12C` [Compound 2113], the Emax in experiment [1] (setting [3]) worked out at 403%; in experiment [2] (setting [4]), 285%.

As for `C[C@H](CC[C@H](O)C(C)(C)C)[C@H]1CC[C@H]2[C@@H]3CC[C@H]4C[C@](O)(C(F)(F)F)CC[C@]4(C)[C@H]3CC[C@]12C` [Compound 2184], the EC50 in experiment [1] is 65.8 nM; in experiment [2], 80 nM.

On to `C[C@H](CC[C@@H](C)O)[C@H]1CC[C@H]2[C@@H]3CC[C@H]4C[C@](O)(C(F)(F)F)CC[C@]4(C)[C@H]3CC[C@]12C` [Compound 2285], for which the EC50 was 764 nM in experiment [1] and 494 nM in experiment [2]. Besides, the Emax in experiment [1] (setting [3]) is 205%; in experiment [2] (setting [4]), 220%.

Turning to `C[C@H](CCC1(O)CCC(F)(F)CC1)[C@H]1CC[C@H]2[C@@H]3CC=C4C[C@](O)(C(F)(F)F)CC[C@]4(C)[C@H]3CC[C@]12C` [Compound 2392], the EC50 came to 104 nM in experiment [1] and 47.5 nM in experiment [2].

With `C[C@H](CCCO)[C@H]1CC[C@H]2[C@@H]3CC[C@H]4C[C@](O)(C(F)(F)F)CC[C@]4(C)[C@H]3CC[C@]12C` [Compound 2499], the figures for the EC50 in experiment [1] and in experiment [2] were 768 nM and 751 nM, respectively. Moreover, the Emax in experiment [1] (setting [3]) turned out to be 180%; in experiment [2] (setting [4]), 238%.

`C[C@H](CCC(O)C(C)(C)C)[C@H]1CC[C@H]2[C@@H]3CC=C4C[C@](O)(C(F)(F)F)CC[C@]4(C)[C@H]3CC[C@]12C` (stereo partly drawn) [Compound 2500]: the EC50 in experiment [1] turned out to be 63.3 nM; in experiment [2] it was 91.1 nM.

Regarding `C[C@H](O)CC[C@@H](C)[C@H]1CC[C@H]2[C@@H]3CC=C4C[C@](O)(C(F)(F)F)CC[C@]4(C)[C@H]3CC[C@]12C` [Compound 2602], the values for the EC50 in experiment [1] and in experiment [2] were 289 nM and 279 nM, respectively. The Emax in experiment [1] (setting [3]) turned out to be 163%; in experiment [2] (setting [4]), 367%.

On to `C[C@H](CC[C@@]1(O)CCOC1)[C@H]1CC[C@H]2[C@@H]3CC[C@H]4C[C@](O)(C(F)(F)F)CC[C@]4(C)[C@H]3CC[C@]12C` [Compound 2706], for which the EC50 in experiment [1] is greater than 10000 nM; in experiment [2] it was 124 nM. The figures for the Emax in experiment [1] (setting [3]) and in experiment [2] (setting [4]) were 96.8% and 139%, respectively.
